{"source": "patent US20060134195A1", "about": "“Mannose-based fast dissolving tablets” (priority 2002, published 2006)", "key": {"[1]": {"assay": "Tablet strength graded 1-5 by hand and by dropping the tablet", "format": "physicochemical", "parameters": "key: strength grade on a 1-5 scale", "protocol": "(§1) A variety of candidate materials were used to make compressed tablets, and the tablet properties, such as strength and disintegration time, were examined. Particles of each material were compressed under different pressure by a Carver press. The hardness of the tablet was tested by hand for initial qualitative measurement and also by dropping the tablet from a certain height onto the laboratory bench top or to the floor. The tablet strength was graded by assigning a number ranging from 1-5. […] Each tablet was placed into 5 mL water and observed for 30 seconds to see if it disintegrated and dissolved in that time period."}, "[2]": {"assay": "Tablet placed into 5 mL water and observed for 30 seconds for disintegration and dissolution", "format": "physicochemical", "protocol": "as §1"}, "[3]": {"conditions": "compression pressure 70.2 MPa, 5 mL water, 30 seconds"}, "[4]": {"conditions": "compression pressure 105 MPa, 5 mL water, 30 seconds"}, "[5]": {"conditions": "summary of the materials survey, pressure not stated"}, "[6]": {"conditions": "compression pressure 35.1 MPa, 5 mL water, 30 seconds"}}, "note": "Values joined by “and” are separate entries in the source; they are usually repeats but may differ in a detail not shown here. Identical values can stand only once. Like-named read-outs stand apart in the source and are kept apart here."}
{"compound": "[Cl-].[Na+]", "note": "[Sodium Chloride]", "values": [{"measurement": "Tablet Strength", "setting": "[1]; compression pressure 70.2 MPa", "value": 2}, {"measurement": "Tablet Strength", "setting": "[1]; compression pressure 105 MPa", "value": 2}, {"measurement": "Disintegration Characteristics", "setting": "[2]; [3]", "value": "No disintegration."}, {"measurement": "Disintegration Characteristics", "setting": "[2]; [4]", "value": "No disintegration."}]}
{"compound": "CC(=O)[O-].CC(=O)[O-].[Ca+2]", "note": "[Calcium Acetate]", "values": [{"measurement": "Tablet Strength", "setting": "[1]", "value": 4}, {"measurement": "Disintegration Characteristics", "setting": "[2]", "value": "No disintegration."}]}
{"compound": "O=P([O-])([O-])O.[Ca+2]", "note": "[DITAB, Calcium Phosphate, Dibasic]", "values": [{"measurement": "Tablet Strength", "setting": "[1]; compression pressure 70.2 MPa", "value": 4}, {"measurement": "Disintegration (screening summary)", "setting": "[2]; [5]", "value": "fast disintegration"}]}
{"compound": "O=C([O-])[O-].[Ca+2]", "note": "[Calcium Carbonate]", "values": [{"measurement": "Tablet Strength", "setting": "[1]", "value": 2}, {"measurement": "Disintegration (screening summary)", "setting": "[2]", "value": "fast disintegration"}]}
{"compound": "OC[C@H]1O[C@H](O[C@H]2[C@H](O)[C@@H](O)[C@H](O)O[C@@H]2CO)[C@H](O)[C@@H](O)[C@@H]1O", "note": "[Maltose]", "values": [{"measurement": "Tablet Strength", "setting": "[1]; compression pressure 70.2 MPa", "value": 3}, {"measurement": "Disintegration Characteristics", "setting": "[2]; [3]", "value": "Total disintegration of the entire tablet."}, {"measurement": "Disintegration (screening summary)", "setting": "[2]; [5]", "value": "fast disintegration"}]}
{"compound": "NCC(=O)O", "note": "[Glycine]", "values": [{"measurement": "Tablet Strength", "setting": "[1]; compression pressure 105 MPa", "value": 2}, {"measurement": "Disintegration (screening summary)", "setting": "[2]; [5]", "value": "fast disintegration"}]}
{"compound": "OC[C@H]1O[C@@](CO)(O[C@H]2O[C@H](CO)[C@@H](O)[C@H](O)[C@H]2O)[C@@H](O)[C@@H]1O", "note": "[Sucrose]", "values": [{"measurement": "Tablet Strength", "setting": "[1]; compression pressure 70.2 MPa", "value": 2}, {"measurement": "Tablet Strength", "setting": "[1]; compression pressure 91.3 MPa", "value": 2}, {"measurement": "Disintegration Characteristics", "setting": "[2]; compression pressure 91.3 MPa, 5 mL water, 30 seconds", "value": "No improvement."}]}
{"compound": "O=C1NS(=O)(=O)c2ccccc21.[Na]", "note": "[Sodium Saccharin]", "values": [{"measurement": "Tablet Strength", "setting": "[1]; compression pressure 35.1 MPa", "value": 1}, {"measurement": "Tablet Strength", "setting": "[1]; compression pressure 70.2 MPa", "value": 2}, {"measurement": "Tablet Strength", "setting": "[1]; compression pressure 105 MPa", "value": 2}, {"measurement": "Disintegration Characteristics", "setting": "[2]; [6]", "value": "Instant disintegration"}, {"measurement": "Disintegration Characteristics", "setting": "[2]; [3]", "value": "Instant disintegration"}, {"measurement": "Disintegration Characteristics", "setting": "[2]; [4]", "value": "Instant disintegration"}, {"measurement": "Disintegration (screening summary)", "setting": "[2]; [5]", "value": "fast disintegration"}]}
{"compound": "OC[C@@H](O)[C@@H](O)[C@H](O)[C@H](O)CO", "note": "[Mannitol]", "values": [{"measurement": "Tablet Strength", "setting": "[1]; compression pressure 70.2 MPa", "value": 2}]}
{"compound": "OC[C@H]1O[C@@H]2O[C@H]3[C@H](O)[C@@H](O)[C@@H](O[C@H]4[C@H](O)[C@@H](O)[C@@H](O[C@H]5[C@H](O)[C@@H](O)[C@@H](O[C@H]6[C@H](O)[C@@H](O)[C@@H](O[C@H]7[C@H](O)[C@@H](O)[C@@H](O[C@H]8[C@H](O)[C@@H](O)[C@@H](O[C@H]1[C@H](O)[C@H]2O)O[C@@H]8CO)O[C@@H]7CO)O[C@@H]6CO)O[C@@H]5CO)O[C@@H]4CO)O[C@@H]3CO", "note": "[Beta-Cyclodextrin]", "values": [{"measurement": "Tablet Strength", "setting": "[1]; compression pressure 35.1 MPa", "value": 4}, {"measurement": "Tablet Strength", "setting": "[1]; compression pressure 105 MPa", "value": 4}, {"measurement": "Disintegration Characteristics", "setting": "[2]; [6]", "value": "No disintegration."}, {"measurement": "Disintegration Characteristics", "setting": "[2]; [4]", "value": "No disintegration."}]}
{"compound": "O.OC[C@H]1O[C@@H](O[C@H]2[C@H](O)[C@@H](O)C(O)O[C@@H]2CO)[C@H](O)[C@@H](O)[C@H]1O", "note": "(stereo partly shown) [Lactose monohydrate]", "values": [{"measurement": "Tablet Strength", "setting": "[1]; compression pressure 70.2 MPa", "value": 3}]}
{"compound": "O=P([O-])(O)O.O=P([O-])(O)O.[Ca+2]", "note": "[Calcium Phosphate, Monobasic]", "values": [{"measurement": "Tablet Strength", "setting": "[1]; compression pressure 105 MPa", "value": 3}]}
{"compound": "[Ca+2].[Cl-].[Cl-]", "note": "[Calcium Chloride]", "values": [{"measurement": "Tablet Strength", "setting": "[1]", "value": 4}]}
{"compound": "CC(=O)Oc1ccccc1C(=O)O", "note": "[Aspirin, reference compound]", "values": [{"measurement": "Tablet Strength", "setting": "[1]; compression pressure 35.1 MPa", "value": 2}, {"measurement": "Tablet Strength", "setting": "[1]; compression pressure 70.2 MPa", "value": 3}, {"measurement": "Tablet Strength", "setting": "[1]; compression pressure 105 MPa", "value": 4}]}
{"compound": "Calcium Gluconate", "values": [{"measurement": "Tablet Strength", "setting": "[1]; compression pressure 35.1 MPa", "value": 4}]}
{"compound": "O=C([O-])[O-].[Na+].[Na+]", "note": "[Sodium Carbonate]", "values": [{"measurement": "Tablet Strength", "setting": "[1]", "value": "4 and 3"}, {"measurement": "Disintegration Characteristics", "setting": "[2]", "value": "No disintegration."}]}
{"compound": "O=C(O)c1ccccc1O", "note": "[Salicylic Acid]", "values": [{"measurement": "Tablet Strength", "setting": "[1]; compression pressure 35.1 MPa", "value": 1}, {"measurement": "Tablet Strength", "setting": "[1]; compression pressure 70.2 MPa", "value": 2}, {"measurement": "Tablet Strength", "setting": "[1]; compression pressure 105 MPa", "value": 2}, {"measurement": "Disintegration Characteristics", "setting": "[2]; [3]", "value": "No disintegration."}, {"measurement": "Disintegration Characteristics", "setting": "[2]; [4]", "value": "No disintegration."}]}
{"compound": "CC(C)Cc1ccc(C(C)C(=O)O)cc1", "note": "(stereo not shown) [Ibuprofen, reference compound]", "values": [{"measurement": "Tablet Strength", "setting": "[1]; compression pressure 70.2 MPa", "value": 3}]}
{"compound": "N[C@@H](CCC(=O)O)C(=O)O", "note": "[Glutamic acid]", "values": [{"measurement": "Tablet Strength", "setting": "[1]; compression pressure 105 MPa", "value": 3}, {"measurement": "Disintegration (screening summary)", "setting": "[2]; [5]", "value": "fast disintegration"}]}
{"compound": "Cn1c(=O)c2[nH]cnc2n(C)c1=O", "note": "[Theophyline, reference compound]", "values": [{"measurement": "Disintegration Characteristics", "setting": "[2]; [6]", "value": "No disintegration."}, {"measurement": "Disintegration Characteristics", "setting": "[2]; [3]", "value": "No disintegration."}, {"measurement": "Disintegration Characteristics", "setting": "[2]; [4]", "value": "No disintegration."}]}
{"compound": "Cn1c(=O)c2c(ncn2C)n(C)c1=O", "note": "[Caffeine, reference compound]", "values": [{"measurement": "Tablet Strength", "setting": "[1]; compression pressure 35.1 MPa", "value": 3}, {"measurement": "Tablet Strength", "setting": "[1]; compression pressure 70.2 MPa", "value": 4}, {"measurement": "Disintegration Characteristics", "setting": "[2]; [3]", "value": "Breaking into particles after 20 sec."}]}
{"compound": "CC(=O)[O-].CC(=O)[O-].[Zn+2]", "note": "[Zinc Acetate]", "values": [{"measurement": "Tablet Strength", "setting": "[1]", "value": 3}, {"measurement": "Disintegration Characteristics", "setting": "[2]", "value": "No disintegration."}]}
